According to patent US4007210A, “Novel 3-triphenylmethoxy-1-alkynes, 3-triphenylmethoxy-1-trans-alkenyl-dialkyl-alanes, and lithium 3-triphenyl-methoxy-1-trans-alkenyl-dialkyl-alanates” (American Cyanamid Company, priority 1975, dated 1977):

What was measured:
diastolic blood pressure = assay: hypotensive activity in anesthetized rats; assay type: in vivo, Male Wistar strain rats; settings: intravenous, minimal dose for a decrease of about 10 mm. in diastolic blood pressure; for minimal effective dose: Rattus norvegicus
Experimental: This procedure is a modification of the technique described by Pike et al., Prostaglandins, Nobel Symposium 2, Stockholm, June, 1966; p. 165.
Male Wistar strain rats (Royal Hart Farms) averaging approximately 250 grams in weight were fastened to rat boards in a supine position by means of canvas vests and limb ties. The femoral area was infiltrated subcutaneously with lidocaine and the iliac artery and vein were exposed and cannulated. Arterial blood pressure (systolic/diastolic) was recorded using a Statham P23 Db pressure, the animals were anethetized before use with pentobarbital, 30 mg./kg. of body weight intravenously, and also were given hexamethoxium bitartrate, 2 mg/kg. of body weight intravenously. The test compounds were prepared by ultrasonic dispersion in a saline-Tween 80 vehicle. A constant intravenous dose volume of 0.5 ml. was administered and test doses ranged from 0.1 to 10.0 mg./kg. of body weight. Increasing or decreasing doses were selected depending on the dose response obtained. In Table 2B below are set forth the minimal doses required to produce a decrease of about 10 mm. in diastolic blood pressure for typical compounds of the present invention.

[1] = system: indomethacin ulcers of the stomach; assay: protection against the ulcerogenic properties of indomethacin (ulcer score); assay type: in vivo, rats; settings: 2.5 or lower = active
Experimental: The compounds of this invention provide protection against the ulcerogenic properties of indomethacin. This assay was carried out in the following manner.
Rats were starved for 48 hours (water was given ad libitum). Indomethacin (20 mg./kg. of body weight) was administered by the subutaneous route and one-half the dose of the test compound was administered by gavage at the same time. After three hours, the second half of the test compound was administered also by Gavage. Five hours after the administration of indomethacin the animals were decapitated and the stomachs removed. The stomachs were washed with distilled water, blotted on gauze, cut along the larger curvature, and the contents rinsed with distilled water. The stomachs were spread out, pinned on a cork and visualized under magnifying glass for ulcers. The criteria for scoring of ulcers was as previously reported. [Abdel-Galil et al. Brit. J. Pharmac. Chemotherapy 33:1-14 (1968)].
1 Petechial hemorrhage or pin point ulcer
3 Many ulcers, a few large
4 Many ulcers, mainly large
Control animals treated with indomethacin but not test compound consistently give scores of about 3.0-3.5. Control animals treated with neither indomethacin nor test compound give scores of about 0.5-0.8. Compounds producing a score of 2.5 or lower are considered to be active.

[2] = system: bronchospasms elicited by 5-hydroxytryptamine; assay: bronchodilator activity, Konzett procedure, 5-hydroxytryptamine; assay type: in vivo, guinea pigs; settings: Cavia porcellus; three logarithmic cumulative intravenous doses; spasmogen 5-hydroxytryptamine; read-out: Bronchodilator Activity (Konzett Assays) ED50, 5-hydroxytryptamine
Experimental: (§1) Bronchodilator activity was determined in guinea pigs against bronchospasms elicited by intravenous injections of 5-hydroxytryptamine, histamine or acetylcholine by the Konzett procedure. [See J. Lulling, P. Lievens, F. El Sayed and J. Prignot, Arzeimittel-Forschung, 18 995 (1968).]
(§2) In the table which follows bronchodilator activity for representative compounds of this invention against one or more of the three spasmogenic agents is expressed as an ED50 determined from the results obtained with three logarithemic cumulative intravenous doses.

[3] = system: bronchospasms elicited by histamine; assay: bronchodilator activity, Konzett procedure, histamine; assay type: in vivo, guinea pigs; settings: Cavia porcellus; three logarithmic cumulative intravenous doses; spasmogen histamine; read-out: Bronchodilator Activity (Konzett Assays) ED50, histamine
Experimental: as §1, §2

[4] = system: bronchospasms elicited by acetylcholine; assay: bronchodilator activity, Konzett procedure, acetylcholine; assay type: in vivo, guinea pigs; settings: Cavia porcellus; three logarithmic cumulative intravenous doses; column head printed choline; read-out: Bronchodilator Activity (Konzett Assays) ED50, choline
Experimental: as §1, §2

gastric acid secretion = gastric acid secretion inhibition, "Shay rat" procedure; assay type: in vivo, rats (male, CFE strain); settings: intraduodenal dose 100 mg./kg. of body weight; 3 hours; 20% or more = active
Experimental: The novel compounds of the present invention are also effective inhibitors of gastric acid secretion and of ulcer development in experimental animals, and thus are potentially valuable as agents for the control of gastric acid secretion and of gastric erosion and as anti-ulcer agents. Gastric acid secretion inhibitory action is usually measured by the "Shay rat" procedure ^(1,2) with some modifications as follows.
The rats (male, CFE strain) were starved for 48 hours (water was given ad libitum) to permit evacuation of stomach contents. On the morning of the experiment, under ether anesthesia, the abdominal region was shaved and a midline incision (1-1 1/2 in.) was made with a scapel. With the help of a closed curved hemostate the duodenum was picked up. […]
The test compound or the vehicle, usually […], were injected into the duodenum as close as possible to the first ligature. […] The supernatant was collected, volume measured and recorded, 2 drops of a phenolphthalein indicator (1% in 95% ethanol) were added and the solution was titrated with 0.02N NaOH (or with 0.04N NaOH when large volumes of stomach contents were encountered) to pH 8.4 (because of usual coloring of the stomach contents, phenolphthalein was only used to permit visual indication that the end point was near) and the amount of acid present was calculated. […]

[5] = total oral dose 25 mg./kg. of body weight, control score 3.2, scale 0 (normal stomach) to 4 (many ulcers, mainly large)

## CC/C=C\CC(O)/C=C/C1CCC(=O)C1C/C=C\CCCC(=O)O (stereo not drawn) [9-oxo-15-hydroxy-5-cis,13-trans,17-cis-prostatrienoic acid]
Diastolic blood pressure
  Minimal effective hypotensive dose: < 2 mg./kg. of body wt.

## CCCCC[C@H](O)/C=C/[C@H]1CCCC(=O)[C@@H]1CCCCCCC(=O)O (relative stereo) [9-oxo-10a-homo-15-hydroxy-13-trans-prostenoic acid]
Diastolic blood pressure
  minimal effective dose: 2 mg/kg

## CCCCC(CC)C(O)/C=C/[C@H]1CCC(=O)[C@@H]1CCCCCCC(=O)O (stereo partly drawn) [9-oxo-15-hydroxy-16-ethyl-13-trans-prostenoic acid]
[1]; [5]
  Score, Treated: 1.7

## CCCCC[C@@H](O)/C=C/[C@H]1CCC(=O)[C@@H]1CCCCCC(C)C(=O)O (stereo partly drawn) [2-methyl-9-oxo-15-epi-hydroxy-13-trans-prostenoic aid]
Diastolic blood pressure
  minimal effective dose: 2 mg/kg

## CCCCC[C@@H](O)/C=C/[C@H]1CCC(=O)[C@@H]1CCCCOCC(=O)OCC (relative stereo) [Ethyl 3-oxa-9-oxo-15-epi-hydroxy-13-trans-prostenoate]
Diastolic blood pressure
  minimal effective dose: 0.2 mg/kg

## CCCCC[C@H](O)/C=C/[C@H]1CCC(=O)[C@@H]1CCCCCC(CC)C(=O)O (stereo partly drawn) [9-oxo-15-hydroxy-2-ethyl-13-trans-prostenoic acid]
Diastolic blood pressure
  minimal effective dose: < 2 mg/kg
[1]; total oral dose 50 mg./kg. of body weight, control score 3.0, scale 0-4
  Score, Treated: 2.2
[2]
  ED50: 0.000329 mg/kg
[3]
  ED50: 0.000145 mg/kg
[4]
  ED50: 0.000533 mg/kg

## CCCCCC(O)/C=C/C1CCC(=O)C1(C)CCCCCCC(=O)O (stereo not drawn) [9-oxo-8β-methyl-15-hydroxy-13-trans-prostenoic acid]
Diastolic blood pressure
  Minimal effective hypotensive dose: 2 mg./kg. of body wt.
[1]; total oral dose 12.5 mg./kg. of body weight, control score 3.0, scale 0-4
  Score, Treated: 2.0

## CCCCC[C@@H](O)/C=C/[C@H]1CCCC(=O)[C@@H]1CCCCCCC(=O)O (relative stereo) [9-oxo-10a-homo-15-epi-hydroxy-13-trans-prostenoic acid]
Diastolic blood pressure
  minimal effective dose: 2 mg/kg

## CCCCCC(O)/C=C\[C@H]1CCC(=O)[C@@H]1CCCCCCC(=O)O (relative stereo) [9-oxo-15-hydroxy-13-cis-prostenoic acid, 15-hydroxy-9-oxo-13-cis-prostenoic acid]
[1]; total oral dose 100 mg./kg. of body weight, control score 3.0, scale 0-4
  Score, Treated: 1.3
[2]
  ED50: 0.000106 mg/kg

## CCCC#CC(O)CC[C@H]1CCC(=O)[C@@H]1CCCCCCC(=O)O (stereo partly shown) [9-oxo-15-hydroxy-16-prostynoic acid]
[4]
  ED50: 0.00032 mg/kg

## CCCCC[C@H](O)/C=C/[C@H]1CCC(=O)[C@@H]1CCCCCC(C)C(=O)O (stereo partly drawn) [2-methyl-9-oxo-15-hydroxy-13-trans-prostenoic acid]
Diastolic blood pressure
  minimal effective dose: 2 mg/kg

## CCCCC[C@H](O)/C=C/[C@H]1CCC(=O)[C@@H]1CCCCOCC(=O)OCC (relative stereo) [Ethyl 3-oxa-9-oxo-15-hydroxy-13-trans-prostenoate]
Diastolic blood pressure
  minimal effective dose: 0.2 mg/kg

## CC/C=C\CC(C)(O)/C=C/C1CCC(=O)C1C/C=C\CCCC(=O)O (stereo not drawn) [9-oxo-15-hydroxy-15-methyl-5-cis,13-trans,17-cis-prostatrienoic acid]
Diastolic blood pressure
  Minimal effective hypotensive dose: < 2 mg./kg. of body wt.

## CCCCCC(O)/C=C/[C@H]1CCC(=O)[C@@H]1CCCCC(C)(C)CC(=O)O (relative stereo) [9-oxo-15-hydroxy-3,3-dimethyl-13-trans-prostenoic acid]
Gastric acid secretion
  Percent Inhibition (gastric acid secretion): 51%

## CCCCC[C@H](O)/C=C/[C@H]1CCC(=O)[C@@H]1CCCCOCC(=O)O (relative stereo) [3-oxa-9-oxo-15-hydroxy-13-trans-prostenoic acid]
Diastolic blood pressure
  minimal effective dose: < 2 mg/kg

## CCCCC[C@H](O)/C=C/[C@H]1CCC(=O)[C@@H]1CCCCSCC(=O)O (relative stereo) [9-oxo-3-thia-15-hydroxy-13-trans-prostenoic acid]
Diastolic blood pressure
  minimal effective dose: 2 mg/kg

## CCCCC[C@H](O)/C=C/[C@H]1CCC(=O)[C@@H]1CCCCCC(C(=O)O)c1ccccc1 (stereo partly drawn) [2-phenyl-9-oxo-15-hydroxy-13-trans-prostenoic acid]
Diastolic blood pressure
  minimal effective dose: 8 mg/kg

## CCCCC[C@@H](O)/C=C/[C@H]1CCC(=O)[C@@H]1CCCCSCC(=O)O (relative stereo) [9-oxo-3-thia-15-epi-hydroxy-13-trans-prostenoic acid]
Diastolic blood pressure
  minimal effective dose: 2 mg/kg
[1]; [5]
  Score, Treated: 2.3
